From PubChem BioAssay (NCI)
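All cell lines were grown in 96-well plates and treated with compound for 48 hours. Definition used: TGI = concentration required for complete inhibition of growth.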

Tests used:
Assay in all cases: inhibition of tumour cell growth, NCI panel, 48 h
DU-145 prostate = test system: DU-145 prostate
786-0 renal = test system: 786-0 renal
COLO 205 colon = test system: COLO 205 colon
SW-620 colon = test system: SW-620 colon
OVCAR-5 ovarian = test system: OVCAR-5 ovarian
SF-539 CNS = test system: SF-539 CNS
OVCAR-4 ovarian = test system: OVCAR-4 ovarian
CCRF-CEM leukemia = test system: CCRF-CEM leukemia
RPMI-8226 leukemia = test system: RPMI-8226 leukemia
RXF 393 renal = test system: RXF 393 renal
SF-268 CNS = test system: SF-268 CNS
HL-60(TB) leukemia = test system: HL-60(TB) leukemia
NCI-H522 lung = test system: NCI-H522 lung
U251 CNS = test system: U251 CNS
MOLT-4 leukemia = test system: MOLT-4 leukemia
PC-3 prostate = test system: PC-3 prostate

| Compound | TGI (DU-145 prostate) | TGI (786-0 renal) | TGI (COLO 205 colon) | TGI (SW-620 colon) | TGI (OVCAR-5 ovarian) | TGI (SF-539 CNS) | TGI (OVCAR-4 ovarian) | TGI (CCRF-CEM leukemia) | TGI (RPMI-8226 leukemia) | TGI (RXF 393 renal) | TGI (SF-268 CNS) | TGI (HL-60(TB) leukemia) | TGI (NCI-H522 lung) | TGI (U251 CNS) | TGI (MOLT-4 leukemia) | TGI (PC-3 prostate) |
| --- | --- | --- | --- | --- | --- | --- | --- | --- | --- | --- | --- | --- | --- | --- | --- | --- |
| Cc1cc(C)c(-c2no/c(=N\S(=O)(=O)c3ccc(Cl)cc3)o2)c(C)c1 | > 100 µM | > 100 µM | > 100 µM | > 100 µM | > 100 µM | > 100 µM | > 100 µM | > 100 µM | > 100 µM | > 100 µM | > 100 µM | 77.4 µM | 71.2 µM | > 100 µM | > 100 µM | > 100 µM |
| COC(CN(C)C(=S)Nc1cccc2ccccc12)OC | > 10 µM | > 10 µM | > 10 µM | > 10 µM | – | > 10 µM | > 10 µM | > 10 µM | > 10 µM | > 10 µM | > 10 µM | > 10 µM | > 10 µM | > 10 µM | > 10 µM | > 10 µM |
| C[C@@H](CC(=O)OCc1ccccc1)OC1OC(COC(=O)C(C)(C)C)C(OC(=O)C(C)(C)C)C(OC(=O)C(C)(C)C)C1OC(=O)C(C)(C)C (stereo partly specified) | > 100 µM | > 100 µM | > 100 µM | > 100 µM | > 100 µM | > 100 µM | > 100 µM | > 100 µM | > 100 µM | > 100 µM | > 100 µM | > 100 µM | > 100 µM | > 100 µM | > 100 µM | > 100 µM |
| S=C1Cc2c(-c3ccccc3)cc(-c3cccc(Cl)c3)nc2-c2ccccc2N1 | 38.9 µM | 2.21 µM | > 100 µM | 15.4 µM | > 72.7 µM | 8.54 µM | 1.21 µM | 30.5 µM | 56.2 µM | 12.8 µM | 17.7 µM | 54.9 µM | 13.1 µM | 3.31 µM | > 90.2 µM | > 96.1 µM |
| CCCCCCCCCCCCCCCCCCNc1ccn(C2OC(COP(=O)(O)OCC3OC(n4ccc(N)nc4=O)C(O)C3O)C(O)C2O)c(=O)n1 (stereo unspecified) | > 100 µM | > 100 µM | > 100 µM | > 100 µM | > 100 µM | > 100 µM | > 100 µM | > 100 µM | > 100 µM | > 100 µM | > 100 µM | > 100 µM | > 100 µM | > 100 µM | > 70.6 µM | > 100 µM |
| COC1(OC)c2occc2C(=N)c2ccc(=O)oc21 | > 100 µM | > 100 µM | > 100 µM | > 100 µM | > 100 µM | > 100 µM | > 100 µM | > 100 µM | > 100 µM | > 100 µM | > 100 µM | > 100 µM | > 100 µM | > 100 µM | > 100 µM | > 100 µM |
| CCOc1cnc(C(O)(c2ccccc2)c2ccccc2)o1 | > 100 µM | > 100 µM | > 100 µM | > 100 µM | > 100 µM | > 100 µM | > 100 µM | > 100 µM | > 100 µM | > 100 µM | > 100 µM | > 100 µM | > 100 µM | > 100 µM | > 100 µM | > 100 µM |
| C=CCC(CCC(C)=O)(C(=O)OCC)C(=O)OCC | > 100 µM | > 100 µM | > 100 µM | > 100 µM | > 100 µM | > 100 µM | > 100 µM | > 100 µM | > 100 µM | > 100 µM | > 100 µM | > 100 µM | > 100 µM | > 100 µM | > 100 µM | > 100 µM |
| COC(=O)/C=C(\C(=O)OC)c1cc(C)c2cc(C(C)C)ccc(C)c1-2 | > 100 µM | > 100 µM | > 100 µM | > 100 µM | > 100 µM | > 100 µM | > 100 µM | > 100 µM | > 100 µM | > 100 µM | > 100 µM | > 100 µM | 50.3 µM | > 100 µM | > 100 µM | > 100 µM |
| CCN(CC)CCNc1ccc([N+](=O)[O-])c2nc3ccc(OC)cc3c(NCCN(CC)CC)c12 | > 7.37 µM | 1.56 µM | 1.59 µM | 2.51 µM | 4.79 µM | 2.43 µM | 3.1 µM | 1.54 µM | > 4.4 µM | 2.59 µM | > 10 µM | 2.53 µM | 2.51 µM | 2.59 µM | > 3.13 µM | 2.1 µM |
| N#Cc1c(NC(=O)C(F)(F)F)sc2c3c(=O)c4ccccc4c(=O)c=3oc3ccccc3c12 | 28.7 µM | 72.2 µM | 32.8 µM | 67.1 µM | 63.3 µM | 32.1 µM | 31.2 µM | 12.5 µM | 56.2 µM | > 63.4 µM | 61.4 µM | 24.6 µM | 32.6 µM | 41.3 µM | 34.3 µM | > 62.2 µM |
| Cc1nc2c(sc3nc4c(cc32)CCC4)c(=O)o1 | > 100 µM | > 100 µM | > 100 µM | > 100 µM | > 100 µM | > 70.8 µM | 89 µM | > 88.9 µM | > 88.3 µM | > 100 µM | > 100 µM | > 100 µM | 77.9 µM | > 100 µM | > 100 µM | > 100 µM |
| NS(=O)(=O)c1nnc(NC(=S)NC(=O)Nc2ccc(Cl)c(Cl)c2)s1 | 53.9 µM | > 100 µM | 39.1 µM | 65.5 µM | 67.7 µM | 21.8 µM | 55.2 µM | > 100 µM | > 100 µM | 42.3 µM | > 100 µM | 87.6 µM | 31 µM | > 100 µM | > 100 µM | > 100 µM |
| Cc1ccc(N=N/C(=N/NC(=O)c2ccccc2)c2ccc(N(CCC#N)CCC#N)cc2C)cc1 | > 100 µM | > 100 µM | > 100 µM | – | > 100 µM | 64.7 µM | > 100 µM | > 100 µM | > 100 µM | > 100 µM | > 100 µM | > 100 µM | 42.2 µM | > 100 µM | > 100 µM | > 100 µM |
| Cc1ccc(OCC2OC(n3cnc4c(Cl)nc(Nc5cc(Cl)cc(Cl)c5)nc43)CC2Oc2ccc(C)cc2)cc1 (stereo unspecified) | > 100 µM | > 100 µM | > 100 µM | > 100 µM | > 100 µM | > 100 µM | 59.2 µM | > 100 µM | > 100 µM | > 100 µM | > 100 µM | > 100 µM | > 100 µM | > 100 µM | > 100 µM | > 100 µM |
| [B]C(=O)NC(CC(C)C)C(=O)NCC(=O)NC1c2ccsc2C(=O)C1O (stereo unspecified) (tested in a mixture with another compound) | > 100 µM | > 100 µM | > 100 µM | > 100 µM | > 100 µM | > 100 µM | > 100 µM | > 31.6 µM | > 100 µM | > 100 µM | > 100 µM | > 100 µM | > 100 µM | > 100 µM | > 100 µM | > 100 µM |
| O=C(Nn1c(-c2ccccc2)nc2ccccc2c1=O)c1ccc(Cl)cc1 | > 100 µM | > 100 µM | – | > 100 µM | > 100 µM | > 100 µM | > 100 µM | > 100 µM | > 100 µM | > 100 µM | > 100 µM | > 100 µM | > 100 µM | > 100 µM | > 100 µM | > 100 µM |
| CC(=O)c1ccc(Nc2c3c(nc4ccccc24)CCCC3)cc1 | > 65 µM | > 100 µM | > 51.1 µM | > 78.8 µM | 97.9 µM | > 100 µM | > 100 µM | > 100 µM | > 100 µM | 72.4 µM | > 100 µM | > 100 µM | 16.6 µM | > 59.2 µM | 73.8 µM | > 100 µM |
| C=C1CC[C@@H](CCC2CCC3(OC2)O[C@]2(O)CC[C@@]3(C)OC2(C)C)C(C)(C)[C@H]1C/C=C1\CCOC1=O (stereo partly specified) | > 100 µM | 31.3 µM | 35.3 µM | > 100 µM | > 100 µM | > 32.4 µM | > 100 µM | 83 µM | 31.2 µM | 49.5 µM | > 100 µM | 17 µM | > 58.9 µM | 43.5 µM | 23.9 µM | 93.9 µM |
| CN(NC1=NCCO1)c1ccc2ccccc2c1 | > 100 µM | > 100 µM | > 100 µM | > 100 µM | > 100 µM | 82.6 µM | > 100 µM | 49.5 µM | > 100 µM | > 100 µM | > 100 µM | 52.7 µM | > 100 µM | > 100 µM | > 100 µM | > 100 µM |
| COC(=O)[C@H](Cc1ccccc1)NC(=O)c1ccc(CNC(=O)/C=C/c2csc(-c3ccccc3)n2)cc1 | > 74.6 µM | 21 µM | > 83.2 µM | > 100 µM | > 100 µM | 13 µM | > 71 µM | > 100 µM | > 100 µM | 26.8 µM | > 100 µM | > 100 µM | 13.7 µM | > 72.1 µM | 6.68 µM | > 58.2 µM |
| CCN(/C=C1/C(=O)C(c2ccccc2)N(c2ccccc2)C1=O)CC (stereo unspecified) | > 10 µM | > 10 µM | > 10 µM | > 10 µM | > 10 µM | > 10 µM | > 10 µM | > 10 µM | > 10 µM | > 10 µM | > 10 µM | > 10 µM | > 10 µM | > 10 µM | > 10 µM | > 10 µM |
| COc1ccc(/C(Nc2ccccc2)=C(\CCl)c2ccccc2)cc1OC | > 100 µM | > 100 µM | > 100 µM | > 100 µM | > 100 µM | > 100 µM | > 100 µM | 65.5 µM | > 100 µM | > 100 µM | > 100 µM | 50 µM | > 100 µM | 64.7 µM | > 100 µM | > 100 µM |
| C[C@@H]1CC[C@]2(C)C3(C)CC[C@]2(OC3=O)[C@@]12CC(c1ccoc1)OC2=O (stereo partly specified) | > 100 µM | 40.7 µM | 41.4 µM | 74.2 µM | 78.4 µM | 59.2 µM | 48.3 µM | 65.9 µM | 77.5 µM | 46.9 µM | > 100 µM | 44.3 µM | 4.46 µM | > 100 µM | 84.4 µM | > 100 µM |
